According to patent US11987586B1 (TAKEDA PHARMACEUTICAL COMPANY LIMITED, priority 2022, dated 2024):

Biological target: T1, human OX2 receptor (Homo sapiens, UniProt O43614)
T1 construct: expressed in transfected cells
T1 sequence (O43614 1-444): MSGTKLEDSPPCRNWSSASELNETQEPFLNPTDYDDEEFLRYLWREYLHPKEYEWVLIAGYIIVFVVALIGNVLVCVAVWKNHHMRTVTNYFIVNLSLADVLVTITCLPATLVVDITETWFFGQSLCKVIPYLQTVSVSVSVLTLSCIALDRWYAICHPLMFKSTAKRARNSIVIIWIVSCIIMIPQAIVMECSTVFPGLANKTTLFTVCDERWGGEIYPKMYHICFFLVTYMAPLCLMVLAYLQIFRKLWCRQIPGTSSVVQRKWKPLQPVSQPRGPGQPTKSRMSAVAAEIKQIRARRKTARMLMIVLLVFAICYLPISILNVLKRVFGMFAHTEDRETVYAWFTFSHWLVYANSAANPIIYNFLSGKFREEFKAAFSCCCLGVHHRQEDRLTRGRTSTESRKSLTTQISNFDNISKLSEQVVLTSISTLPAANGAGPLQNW
Experiment: Measurement of orexin type 2 receptor agonist activity (calcium fluorescence, Fluo-4, FDSS)
Format: cell-based
Conditions: 3 uM test compound; CHO cells expressing human OX2 receptor; DMSO = 0%, 10 nM orexin A (human) = 100%
Protocol: In order to obtain cell clones that stably express human orexin type 2 receptor, human orexin type 2 (residues 1-444, NCBI Reference Sequence: AK314279) was constructed in a pcDNA3.1 (+) vector (Invitrogen) to express in mammalian cells. This plasmid DNA was transfected into CHO-K1 cells by electroporation, and stable clones were obtained by limiting dilution using resistance to G418 as a selection marker.
CHO cells in which human OX2 receptor was forcibly expressed were seeded at 10,000 cells/well into a 384-well black transparent bottom plate (BD falcon), and were incubated at 37° C., 5% CO2 for 1 day after incubation at room temperature for 30 minutes. After removing the cell plate medium, assay buffer containing calcium indicator A (HBSS (Thermo Fisher Scientific), 20 mM HEPES (Thermo Fisher Scientific), 0.1% BSA (Sigma-Aldrich), 2.5 μg/mL Fluo-4 AM (Dojin Kagaku), 0.08% Pluronic F127 (Dojin Kagaku), 1.25 mM probenecid (Dojin Kagaku)) was added at 30 μL/well. After incubation in a 5% CO2 incubator at 37° C. for 30 minutes, it was incubated at room temperature for another 30 minutes. Add 10 μL/well of the test compound diluted with assay buffer B (HBSS, 20 mM HEPES, 0.1% BSA), and use FDSS μCELL (Hamamatsu Photonics) to measure the fluorescence value every 1 second for 1 minute, and then every 2 seconds for 1 minute. It was measured for 1 minute and 40 seconds. The amount of fluorescence value when DMSO is added instead of the test compound is defined as 0%, and the amount of fluorescence value when orexin A (human) (Peptide Institute) with a final concentration of 10 nM is added is defined as 100%. The activity (%) of the test compound was calculated.

Structure (SMILES) | OX2R agonist activity (3 uM, %)
CCS(=O)(=O)N[C@@H]1Cn2c(cn(-c3noc4cc(COC)cc(-c5c(F)cc(F)cc5F)c34)c2=O)C1(F)F [Example 166, N-{(6R)-7,7-difluoro-2-[6-(methoxymethyl)-4-(2,4,6-trifluorophenyl)-1,2-benzoxazol-3-yl]-3-oxo-2,5,6,7-tetrahydro-3H-pyrrolo[1,2-c]imidazol-6-yl}ethanesulfonamide] | 92%
O=C1N(c2noc3cc(F)cc(-c4c(F)cccc4F)c23)CC[C@H]2N1C[C@@H](NS(=O)(=O)CF)C2(F)F [Example 279, N-{(4aR,6R)-2-[4-(2,6-difluorophenyl)-6-fluoro-1,2-benzoxazol-3-yl]-5,5-difluoro-1-oxooctahydropyrrolo[1,2-c]pyrimidin-6-yl}-1-fluoromethanesulfonamide] | 104%
CCS(=O)(=O)N[C@@H]1CN2C(=O)N(c3noc4ccc(F)c(-c5c(F)cc(F)cc5F)c34)CC[C@@H]2C1(F)F [Example 204, N-{(4aR,6R)-5,5-difluoro-2-[5-fluoro-4-(2,4,6-trifluorophenyl)-1,2-benzoxazol-3-yl]-1-oxooctahydropyrrolo[1,2-c]pyrimidin-6-yl}ethanesulfonamide] | 109%
CCS(=O)(=O)N[C@@H]1Cn2c(cn(-c3noc4nc(C5CC5)cc(-c5c(F)cccc5F)c34)c2=O)C1(F)F [Example 211, N-{(6R)-2-[6-cyclopropyl-4-(2,6-difluorophenyl)[1,2]oxazolo[5,4-b]pyridin-3-yl]-7,7-difluoro-3-oxo-2,5,6,7-tetrahydro-3H-pyrrolo[1,2-c]imidazol-6-yl}ethanesulfonamide] | 108%
CS(=O)(=O)N[C@@H]1CN2C(=O)N(c3noc4cc(Cl)c(F)c(-c5c(F)cc(F)cc5F)c34)C[C@@H]2C1(F)F [Example 40, N-{(6R,7aR)-2-[6-chloro-5-fluoro-4-(2,4,6-trifluorophenyl)-1,2-benzoxazol-3-yl]-7,7-difluoro-3-oxohexahydro-1H-pyrrolo[1,2-c]imidazol-6-yl}methanesulfonamide] | 103%
Cc1cc2onc(N3C[C@H]4N(C[C@@H](NS(C)(=O)=O)C4(F)F)C3=O)c2c(-c2c(F)cc(F)cc2F)c1F [Example 119, N-{(6R,7aR)-7,7-difluoro-2-[5-fluoro-6-methyl-4-(2,4,6-trifluorophenyl)-1,2-benzoxazol-3-yl]-3-oxohexahydro-1H-pyrrolo[1,2-c]imidazol-6-yl}methanesulfonamide] | 105%
CCOc1cc(-c2c(F)cccc2F)c2c(N3CC[C@H]4N(C[C@@H](NS(=O)(=O)C5CC5)C4(F)F)C3=O)noc2c1 [Example 300, N-{(4aR,6R)-2-[4-(2,6-difluorophenyl)-6-ethoxy-1,2-benzoxazol-3-yl]-5,5-difluoro-1-oxooctahydropyrrolo[1,2-c]pyrimidin-6-yl}cyclopropanesulfonamide] | 105%
CNS(=O)(=O)N[C@@H]1Cn2c(cn(-c3noc4cc(F)cc(-c5c(F)cc(F)cc5F)c34)c2=O)C1(F)F [Example 139, N-{(6R)-7,7-difluoro-2-[6-fluoro-4-(2,4,6-trifluorophenyl)-1,2-benzoxazol-3-yl]-3-oxo-2,5,6,7-tetrahydro-3H-pyrrolo[1,2-c]imidazol-6-yl}-N′-methylsulfuric diamide] | 101%
CCS(=O)(=O)N[C@@H]1CN2C(=O)N(c3noc4cc(Cl)cc(-c5c(F)cccc5F)c34)C[C@@H]2C1(F)F [Example 67, N-{(6R,7aR)-2-[6-chloro-4-(2,6-difluorophenyl)-1,2-benzoxazol-3-yl]-7,7-difluoro-3-oxohexahydro-1H-pyrrolo[1,2-c]imidazol-6-yl}ethanesulfonamide] | 97%
Cn1nc(-n2cc3n(c2=O)C[C@@H](NS(C)(=O)=O)C3)c2c(-c3c(F)cccc3F)cccc21 [Example 103, N-{(6S)-2-[4-(2,6-difluorophenyl)-1-methyl-1H-indazol-3-yl]-3-oxo-2,5,6,7-tetrahydro-3H-pyrrolo[1,2-c]imidazol-6-yl}methanesulfonamide] | 106%
O=C1N(c2noc3ccc(F)c(-c4c(F)cc(F)cc4F)c23)CC[C@H]2N1C[C@@H](NS(=O)(=O)CF)C2(F)F [Example 207, N-{(4aR,6R)-5,5-difluoro-2-[5-fluoro-4-(2,4,6-trifluorophenyl)-1,2-benzoxazol-3-yl]-1-oxooctahydropyrrolo[1,2-c]pyrimidin-6-yl}-1-fluoromethanesulfonamide] | 113%
Cc1cc2onc(-n3cc4n(c3=O)C[C@@H](NS(C)(=O)=O)C4(F)F)c2c(-c2c(F)cc(F)cc2F)c1F [Example 184, N-{(6R)-7,7-difluoro-2-[5-fluoro-6-methyl-4-(2,4,6-trifluorophenyl)-1,2-benzoxazol-3-yl]-3-oxo-2,5,6,7-tetrahydro-3H-pyrrolo[1,2-c]imidazol-6-yl}methanesulfonamide] | 101%
CS(=O)(=O)N[C@@H]1CN2C(=O)N(c3noc4cc(Cl)cc(-c5c(F)cccc5F)c34)CC[C@@H]2C1(F)F [Example 259, N-{(4aR,6R)-2-[6-chloro-4-(2,6-difluorophenyl)-1,2-benzoxazol-3-yl]-5,5-difluoro-1-oxooctahydropyrrolo[1,2-c]pyrimidin-6-yl}methanesulfonamide] | 96%
CNS(=O)(=O)N[C@@H]1Cn2c(cn(-c3noc4cc(C)nc(-c5c(F)cccc5F)c34)c2=O)C1(F)F [Example 302, N-{(6R)-2-[4-(2,6-difluorophenyl)-6-methyl[1,2]oxazolo[4,5-c]pyridin-3-yl]-7,7-difluoro-3-oxo-2,5,6,7-tetrahydro-3H-pyrrolo[1,2-c]imidazol-6-yl}-N′-methylsulfuric diamide] | 103%
CCS(=O)(=O)N[C@@H]1CN2C(=O)N(c3noc4cc(OC(F)F)cc(-c5c(F)cccc5F)c34)CC[C@@H]2C1(F)F [Example 255, N-{(4aR,6R)-2-[6-(difluoromethoxy)-4-(2,6-difluorophenyl)-1,2-benzoxazol-3-yl]-5,5-difluoro-1-oxooctahydropyrrolo[1,2-c]pyrimidin-6-yl}ethanesulfonamide] | 107%
CCS(=O)(=O)N[C@@H]1Cn2c(cn(-c3noc4cccc(-c5c(F)cccc5F)c34)c2=O)[C@@H]1F (relative stereo) [Example 129, rel-N-{(6R, 7R)-2-[4-(2,6-difluorophenyl)-1,2-benzoxazol-3-yl]-7-fluoro-3-oxo-2,5,6,7-tetrahydro-3H-pyrrolo[1,2-c]imidazol-6-yl}ethanesulfonamide] | 103%
CCOc1cc(-c2c(F)cc(F)cc2F)c2c(N3CC[C@H]4N(C[C@@H](NS(=O)(=O)CC)C4(F)F)C3=O)noc2c1 [Example 307, N-{(4aR,6R)-2-[6-ethoxy-4-(2,4,6-trifluorophenyl)-1,2-benzoxazol-3-yl]-5,5-difluoro-1-oxooctahydropyrrolo[1,2-c]pyrimidin-6-yl}ethanesulfonamide] | 101%
O=C1N(c2noc3cccc(-c4c(F)cccc4F)c23)C[C@@H]2C[C@H](NS(=O)(=O)CF)CN12 [Example 29, N-{(6S,7aS)-2-[4-(2,6-difluorophenyl)-1,2-benzoxazol-3-yl]-3-oxohexahydro-1H-pyrrolo[1,2-c]imidazol-6-yl}-1-fluoromethanesulfonamide] | 101%
